Assay results taken from patent publication US11739261B2, “Fluorescent probes for acid detection” (THE HONG KONG UNIVERSITY OF SCIENCE AND TECHNOLOGY, priority 2019, dated 2023).

Assay: Acid response study of TPI-C in the aggregation state (PL intensity)
Assay type: physicochemical
Method: FIGS. 1A-1C depict PL spectra of TPI-C (10 μM in THF/hexane mixtures with fH=99%) with adding (1A) HCOOH at different concentrations; (1B) CH3COOH at different concentrations; and (1C) CF3COOH at different concentrations.
FIG. 1D is a graph of relative PL intensity (I/I0) at different acid concentrations (x-axis represents acid concentration at (a) 0 M, (b) 1×10^−20 M, (c) 1×10^−14 M and (d) 1×10^−8 M, respectively).
An acid response study of TPI-C in the aggregation state was performed first. The fluorescent intensity response of TPI-C was investigated by adding different acids with various concentrations. In general, the fluorescent intensity of TPI-C was enhanced upon adding the acid. TPI-C responded in this manner to the formic acid, acetic acid (AcOH) and trifluoroacetic acid (TFA) at concentrations as low as 10^−20 M. For the formic acid, its highest intensity enhancement was around 55% at the acid concentration level of 10^−20 M, as shown in FIG. 1A. When AcOH (1×10^−20 M, 1 μL) and TFA (1×10^−20 M, 1 μL) were added to the TPI-C solution, the intensity enhancement of TPI-C was around 120% (FIG. 1B) and 96% (FIG. 1C), respectively.

Compound: CCCCCCCCn1c(-c2ccc(OC(=O)NCC)cc2)nc(-c2ccccc2)c1-c1ccccc1 [TPI-C]
- fluorescent intensity enhancement (AcOH 1×10^−20 M, 1 μL added to TPI-C solution): around 120%
- fluorescent intensity enhancement (TFA 1×10^−20 M, 1 μL added to TPI-C solution): ~96%
- fluorescent intensity enhancement (formic acid 10^−20 M, TPI-C 10 μM in THF/hexane fH=99%, highest enhancement): around 55%
- acid concentration at which fluorescent intensity is enhanced (as low as) (formic acid, AcOH, TFA): 10^−20 M
